The values below come from article PMC12169610 (Journal of Medicinal Chemistry, 2025).

Read-outs that look alike come from different tables or passages of the source. Marks after values point to notes of the source that are not given here. A value given as a limit tells only on which side of the number the result lay.

For data set [1], the system named is P-gp. As to the kind of experiment: in vitro. Particulars: pig, LLC-PK1. The format is in vitro ADME.
Data set [2] deals with fasted rat. The experiment in a line: Acute refeeding assay. The format is in vivo. Particulars: for Inhibition of Food Intake at 1 h (%), 5 mg/kg dose: 5 mg/kg PO.
For data set [3], the target named is T1, 5-HT2CR (Homo sapiens, UniProt P28335).
T1 sequence (P28335 33-458): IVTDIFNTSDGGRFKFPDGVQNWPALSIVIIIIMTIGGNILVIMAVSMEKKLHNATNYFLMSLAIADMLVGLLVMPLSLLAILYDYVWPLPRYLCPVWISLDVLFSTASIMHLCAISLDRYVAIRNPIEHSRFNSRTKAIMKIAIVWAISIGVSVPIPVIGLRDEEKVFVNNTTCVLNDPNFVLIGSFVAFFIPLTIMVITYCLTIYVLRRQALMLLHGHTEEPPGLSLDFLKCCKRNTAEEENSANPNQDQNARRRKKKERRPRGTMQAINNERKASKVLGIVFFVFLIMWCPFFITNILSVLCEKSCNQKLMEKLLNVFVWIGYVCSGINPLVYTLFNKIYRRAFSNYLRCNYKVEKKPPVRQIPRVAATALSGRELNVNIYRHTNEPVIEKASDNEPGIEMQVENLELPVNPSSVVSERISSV
In kind it is binding.

The test system of data set [4] is major CYP enzymes. As to the kind of experiment: CYP time-dependent inhibition.
In data set [5] the target is T2, CYP2C8 (Homo sapiens, UniProt P10632).
T2 sequence (P10632 1-490): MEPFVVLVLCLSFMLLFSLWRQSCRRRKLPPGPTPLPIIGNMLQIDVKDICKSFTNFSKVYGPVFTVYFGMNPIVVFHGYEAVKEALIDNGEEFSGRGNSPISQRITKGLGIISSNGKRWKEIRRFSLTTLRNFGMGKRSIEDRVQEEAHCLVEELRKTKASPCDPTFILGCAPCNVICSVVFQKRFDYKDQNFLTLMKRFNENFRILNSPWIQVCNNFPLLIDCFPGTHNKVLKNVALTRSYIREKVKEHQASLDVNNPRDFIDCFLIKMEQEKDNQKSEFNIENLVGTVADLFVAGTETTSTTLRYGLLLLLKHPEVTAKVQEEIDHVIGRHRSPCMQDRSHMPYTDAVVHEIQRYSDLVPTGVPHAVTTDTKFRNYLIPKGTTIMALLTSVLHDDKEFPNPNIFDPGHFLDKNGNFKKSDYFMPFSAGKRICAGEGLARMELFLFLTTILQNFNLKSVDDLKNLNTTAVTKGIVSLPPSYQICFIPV

The target of data set [6] is T3, CYP2B6 (Homo sapiens, UniProt P20813).
T3 sequence (P20813 1-491): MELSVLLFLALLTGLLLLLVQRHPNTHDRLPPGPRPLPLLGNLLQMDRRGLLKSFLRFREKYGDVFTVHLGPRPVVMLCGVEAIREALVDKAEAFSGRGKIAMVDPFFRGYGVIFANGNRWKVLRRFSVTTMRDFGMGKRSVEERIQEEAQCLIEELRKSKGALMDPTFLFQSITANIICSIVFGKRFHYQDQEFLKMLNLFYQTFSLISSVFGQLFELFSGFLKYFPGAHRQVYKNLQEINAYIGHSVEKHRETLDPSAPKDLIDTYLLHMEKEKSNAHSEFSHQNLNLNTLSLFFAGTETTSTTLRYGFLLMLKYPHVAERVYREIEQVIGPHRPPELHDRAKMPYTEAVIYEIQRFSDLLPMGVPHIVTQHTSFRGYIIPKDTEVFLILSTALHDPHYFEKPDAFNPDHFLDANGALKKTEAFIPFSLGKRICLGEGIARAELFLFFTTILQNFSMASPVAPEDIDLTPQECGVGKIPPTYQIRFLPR
As to the kind of experiment: CYP inhibition. In kind it is in vitro ADME.

The conditions of data set [7]: predicted from PK data across species.
Data set [8] concerns Eurofins safety screen panel. Particulars: at 10 μM.
Data set [9] concerns the target CYP3A4 (Homo sapiens, UniProt P08684).
The target in data set [10] is CYP2C9 (Homo sapiens, UniProt P11712).
Data set [11] addresses CYP2D6 (Homo sapiens, UniProt P10635).
Data set [12] in a line: in vivo. Particulars: cynomolgus monkey, iv, 2 mg/kg.
Data set [13] has as its target CYP2C19 (Homo sapiens, UniProt P33261).
Data set [14] addresses T4, CYP1A2 (Homo sapiens, UniProt P05177).
T4 sequence (P05177 1-516): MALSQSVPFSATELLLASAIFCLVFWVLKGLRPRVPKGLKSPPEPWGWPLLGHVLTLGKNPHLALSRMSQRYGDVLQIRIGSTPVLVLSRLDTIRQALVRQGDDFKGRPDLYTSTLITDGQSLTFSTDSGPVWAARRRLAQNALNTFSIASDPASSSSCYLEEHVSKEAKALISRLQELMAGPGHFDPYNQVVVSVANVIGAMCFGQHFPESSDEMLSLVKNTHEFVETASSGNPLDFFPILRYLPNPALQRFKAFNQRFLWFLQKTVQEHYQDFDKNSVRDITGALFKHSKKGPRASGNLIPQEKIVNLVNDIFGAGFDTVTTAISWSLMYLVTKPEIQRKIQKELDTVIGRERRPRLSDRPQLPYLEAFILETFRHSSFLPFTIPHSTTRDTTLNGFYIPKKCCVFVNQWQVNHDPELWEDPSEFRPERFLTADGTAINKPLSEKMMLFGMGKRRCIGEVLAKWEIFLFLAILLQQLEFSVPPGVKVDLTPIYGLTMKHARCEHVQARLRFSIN

The nature of data set [15]: Dynamic moisture sorption test. The format is physicochemical. Particulars: 90% relative humidity, 25 °C.

Sequence of CYP3A4 (P08684 whole entry): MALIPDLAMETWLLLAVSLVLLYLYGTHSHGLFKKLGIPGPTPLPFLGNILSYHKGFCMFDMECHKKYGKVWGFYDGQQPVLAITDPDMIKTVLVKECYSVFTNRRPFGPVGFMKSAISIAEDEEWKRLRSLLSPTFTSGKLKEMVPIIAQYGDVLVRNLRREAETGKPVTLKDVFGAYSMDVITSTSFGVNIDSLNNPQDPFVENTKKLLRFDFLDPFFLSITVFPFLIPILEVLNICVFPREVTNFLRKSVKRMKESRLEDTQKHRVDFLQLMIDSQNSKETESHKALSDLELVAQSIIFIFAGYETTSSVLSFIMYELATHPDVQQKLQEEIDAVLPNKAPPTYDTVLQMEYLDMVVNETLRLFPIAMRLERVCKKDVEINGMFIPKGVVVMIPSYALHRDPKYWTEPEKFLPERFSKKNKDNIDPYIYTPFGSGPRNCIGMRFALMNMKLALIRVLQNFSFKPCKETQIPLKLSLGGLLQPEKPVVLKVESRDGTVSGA
Sequence of CYP2C19 (P33261 whole entry): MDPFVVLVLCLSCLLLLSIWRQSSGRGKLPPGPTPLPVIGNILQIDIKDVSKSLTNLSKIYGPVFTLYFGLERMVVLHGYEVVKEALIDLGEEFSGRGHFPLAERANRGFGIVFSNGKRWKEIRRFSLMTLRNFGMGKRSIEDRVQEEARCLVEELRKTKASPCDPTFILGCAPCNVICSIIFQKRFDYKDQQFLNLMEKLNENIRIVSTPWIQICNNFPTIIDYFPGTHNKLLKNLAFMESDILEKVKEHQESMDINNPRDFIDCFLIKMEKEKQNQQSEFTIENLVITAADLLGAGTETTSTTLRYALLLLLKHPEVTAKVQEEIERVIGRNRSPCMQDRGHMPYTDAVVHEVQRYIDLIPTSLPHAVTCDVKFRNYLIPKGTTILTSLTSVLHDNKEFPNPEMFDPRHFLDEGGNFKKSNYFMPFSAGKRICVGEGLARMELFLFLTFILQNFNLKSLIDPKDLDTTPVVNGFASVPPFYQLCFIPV
Sequence of CYP2D6 (P10635 whole entry): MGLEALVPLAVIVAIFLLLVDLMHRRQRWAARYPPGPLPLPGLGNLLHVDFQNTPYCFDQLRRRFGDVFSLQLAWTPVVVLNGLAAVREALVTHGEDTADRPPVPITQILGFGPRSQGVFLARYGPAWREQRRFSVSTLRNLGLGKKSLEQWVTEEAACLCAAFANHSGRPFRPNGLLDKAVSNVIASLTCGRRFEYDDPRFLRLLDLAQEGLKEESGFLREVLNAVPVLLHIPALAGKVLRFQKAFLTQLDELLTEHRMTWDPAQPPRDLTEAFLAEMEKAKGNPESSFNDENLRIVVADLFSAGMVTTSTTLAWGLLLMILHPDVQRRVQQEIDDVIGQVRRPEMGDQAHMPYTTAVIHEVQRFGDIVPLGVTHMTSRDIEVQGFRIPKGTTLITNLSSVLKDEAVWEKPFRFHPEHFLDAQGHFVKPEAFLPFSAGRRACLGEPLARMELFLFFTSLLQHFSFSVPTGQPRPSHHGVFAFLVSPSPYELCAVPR
Sequence of CYP2C9 (P11712 whole entry): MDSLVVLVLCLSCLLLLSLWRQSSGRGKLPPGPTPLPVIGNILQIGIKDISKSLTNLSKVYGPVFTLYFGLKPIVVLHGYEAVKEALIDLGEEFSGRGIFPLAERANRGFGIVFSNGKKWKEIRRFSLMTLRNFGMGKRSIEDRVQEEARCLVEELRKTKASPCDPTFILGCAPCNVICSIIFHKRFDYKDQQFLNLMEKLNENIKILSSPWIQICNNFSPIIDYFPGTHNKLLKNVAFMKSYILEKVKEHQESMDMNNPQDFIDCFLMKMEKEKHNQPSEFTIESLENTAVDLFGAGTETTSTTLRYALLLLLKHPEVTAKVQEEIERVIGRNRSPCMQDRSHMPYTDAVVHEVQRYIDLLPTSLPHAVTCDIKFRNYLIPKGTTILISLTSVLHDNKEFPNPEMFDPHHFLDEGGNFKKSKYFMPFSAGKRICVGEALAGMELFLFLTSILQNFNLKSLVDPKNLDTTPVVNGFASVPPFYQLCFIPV

On to `CCC1CN2CCNCc3ccc(C(=O)NCC(F)F)c1c32` (single isomer, unassigned; (+)) [(+)-19k, (+)-N-(2,2-Difluoroethyl)-7-ethyl-1,2,3,4,6,7-hexahydro-[1,4]diazepino[6,7,1-hi]indole-8-carboxamide], for which, in data set [1], the Papp A→B worked out at 12.8 ×10⁻⁶ cm/s and the efflux ratio worked out at 2.16. Besides, the “Inhibition of Food Intake at 1 h (%), 5 mg/kg dose” value in data set [2] is given as 27 ^d %.
As to `O=C(NCCOc1ccccc1)c1ccc2c3c1CCN3CCNC2` [7p, N-(2-Phenoxyethyl)-1,2,3,4,6,7-hexahydro-[1,4]diazepino[6,7,1-hi]indole-8-carboxamide], the “Selectivity for 5-HT2CR over 5-HT2AR and 5-HT2BR in binding assays” value in [3] (125I-DOI binding assay) was about 100 fold.
Consider `CCCNC(=O)c1ccc2c3c1C(CC(F)(F)F)CN3CCNC2` (single isomer, unassigned; (+)) [(+)-19c], for which the “Inhibition of Food Intake at 1 h (%) with 10 mg/kg po” value in [2] (10 mg/kg PO) is given as 53 ^c %.
On to `CSCCNC(=O)c1ccc2c3c1CCN3CCNC2` [7j, N-(2-(Methylthio)ethyl)-1,2,3,4,6,7-hexahydro-[1,4]diazepino[6,7,1-hi]indole-8-carboxamide], for which the “Selectivity for 5-HT2CR over 5-HT2AR and 5-HT2BR in binding assays” value in data set [3] is over 500 fold.
Consider `C[C@H]1CN2CCNCc3ccc(C(=O)NCC(F)F)c1c32` [(+)-19m, (+)-N-(2,2-Difluoroethyl)-7-methyl-1,2,3,4,6,7-hexahydro-[1,4]diazepino[6,7,1-hi]indole-8-carboxamide], for which the Rat brain protein-binding was 53%. In data set [4], the CYP time-dependent inhibition result is reported as “no time-dependent inhibition”. In data set [5], this compound had an IC50 of over 30 µM. The compound also returned an IC50 in [6] of over 30 µM. Also, the “Predicted half-life in human by allometric scaling” value in [7] is “approximately 7 h”. This compound also returned a Papp A→B in data set [1] of 8.9 ×10⁻⁶ cm/s. The “Binding against >140 target Eurofins safety screen panel” value in [8] is under 25%. The compound further displayed an IC50 in [9] of over 30 µM. The IC50 in [10] was over 30 µM. This compound also returned an IC50 in [11] of over 30 µM. Moreover, the CL renal in [12] was 1.8 mL/h/kg. The compound also showed an IC50 in data set [13] of over 30 µM. In data set [14], the IC50 was over 30 µM. Besides, the “Inhibition of Food Intake at 1 h (%), 5 mg/kg dose” value in data set [2] was 81 ^d %.
As to `C[C@H]1CN2CCNCc3ccc(C(=O)NCC(F)F)c1c32.Cl` [(+)-19m. HCl], the “Weight gain in dynamic moisture sorption test” value in [15] is listed as under 0.1%.
In turn, `CNC(=O)c1ccc2c3c1C(CC(F)(F)F)CN3CCNC2` (single isomer, unassigned; (+)) [(+)-19a] returned an apparent permeability from apical to basolateral (Papp A→B) in data set [1] of 14.8 ×10⁻⁶ cm/s.
`CCC1CN2CCNCc3ccc(C(=O)NC)c1c32` (single isomer, unassigned; (+)) [(+)-19i]: in data set [1], the Papp A→B was determined as 7.73 ×10⁻⁶ cm/s.
As to `CNC(=O)c1ccc2c3c1CCN3CCNC2` [7b, N-Methyl-1,2,3,4,6,7-hexahydro-[1,4]diazepino[6,7,1-hi]indole-8-carboxamide], the “Predicted half-life in human by allometric scaling” value in data set [7] is 3 h. For the same compound, the “Hypophagic effect after preadministration of 5-HT2CR antagonist SB242084” value in data set [2] (10 mg/kg po, 1 h, SB242084 1 mg/kg PO) is reported as “blocked”.

One may read the Papp A→B as the apparent permeability from the apical to the basolateral side of a cell layer. High values mean ready permeation, low ones poor permeation. For orientation: efflux ratio means a quotient of directional permeabilities that is used to spot active efflux. The IC50 is the midpoint of a concentration-inhibition curve. A high value points to a need for much substance.
